According to patent publication US20250288587A1, “Methods of Treating Fibrosis” (Athira Pharma, Inc., priority 2022, published 2025):

What was measured:
CFA-stimulated rats [1] = assay: CFA inflammatory pain model, mechanical allodynia (von Frey test); type: in vivo; parameters: key to Mechanical Allodynia, change in sensitivity compared to CFA alone / Mechanical Allodynia, significant reduction in pain behavior vs CFA alone: NS = no statistically significant change in sensitivity compared to CFA alone; + = statistically significant change in sensitivity compared to CFA alone, p < 0.05
Method: (§1) Response to peripheral inflammatory stimulus can be modeled by administering complete Freund's adjuvant (CFA), a suspension of desiccated mycobacterium in paraffin oil and mannide monooleate, by subcutaneous injection into the rat's footpad. The introduction of CFA to peripheral tissues leads to a rapid, sustained, inflammatory reaction in the treated tissue within 24 hours. Subcutaneous administration of CFA in the plantar region of the paw induces inflammatory pain behaviors that persist for at least 8 days. CFA treatment also leads to the accumulation of inflammatory cytokines in paw tissue at the site of injury, which, if unresolved, can lead to formation of fibrotic tissue. The extent of inflammatory response to CFA can be assessed by quantification of inflammatory cytokines in paw skin lysate, and inflammatory pain behaviors by mechanical allodynia (von Frey test) and thermal hyperalgesia (Hargreaves test).
(§2) In one study, Compound 2a was tested for its ability to reduce inflammatory pain behaviors in the CFA inflammation model. On study day 0, […] of CFA was administered subcutaneously in the plantar of the right hind paw. Animals were treated daily with Compound 2a in solution via oral gavage (PO) at doses of 1, 0.1, and 0.025 mg/kg. Treatment began before CFA injection on study day −1 and continued through study day 8.
Mechanical allodynia was measured using the von Frey test. In this test, rats were placed on a wire mesh and a series of filaments designed to deliver probing force ranging from 4 to 26 grams were applied to the mid-plantar surface of the right hind paw. Animals indicated pain response by lifting the probed paw. The minimal force required to elicit the withdrawal response was recorded as the paw withdrawal threshold (PWT). Von Frey testing was performed 1 hour after Compound 2a dosing on study day 1, 3, and 7, and was also tested pre-dosing on day 7. Statistical analysis was performed using a 1-way ANOVA with Tukey post-test. A p-value below 0.05 was considered statistically significant. Control animals stimulated with CFA but treated with only vehicle had high sensitivity to mechanical stimulation compared to normal control animals.
(§3) In another study, Compounds 1a, 5a, and 6a were similarly tested against CFA-induced inflammatory stimulation in the right hind foot for their ability to reduce pain behaviors. This study also included quantification of inflammatory cytokine expression in paw skin lysate. Inflammatory pain stimulation with CFA injection and assessment of mechanical and thermal pain behaviors were performed as described above, with the exception that only post-dose pain behavior testing is reported.
(§4) Intraplantar CFA injection occurred at day 0. Treatment with Compounds 1a, 5a, and 6a occurred at days −2, 1, 3, and 7. At day 8, the rats were terminated and cytokine levels were measured in paw skin and plasma. Tissue from paw bone, joint, and muscle were obtained for H&E staining and analysis. Cytokine levels in test compound-treated animals were compared to CFA-stimulated animals. Analytes included interleukin 4 (IL-4), tumor necrosis factor alpha (TNF-α) and interferon gamma (IFN-γ). Statistical analysis consisted of 1-way ANOVA followed by Dunnett's multiple comparisons post-test. Mechanical allodynia and thermal hyperalgesia were tested 1 hour post-dosing on days 1, 3, and 7. PWT refers to […] paw withdrawal threshold where a higher value corresponds to a higher pain threshold. PWL refers to […] paw withdrawal latency where a higher value corresponds to a higher pain threshold.

CFA-stimulated rats [2] = assay: CFA inflammatory pain model, thermal hyperalgesia (Hargreaves method); type: in vivo; parameters: key to Thermal Hyperalgesia, change in sensitivity compared to CFA alone / Thermal Hyperalgesia, significant reduction in pain behavior vs CFA alone: NS = no statistically significant change in sensitivity compared to CFA alone; + = statistically significant change in sensitivity compared to CFA alone, p < 0.05
Method: as §1, §2
Thermal hyperalgesia was measured using the Hargreaves method. A temperature ramp was applied to the right hind paw and the paw withdrawal latency (PWL) was recorded as a measure of sensitivity to thermal stimulation. […] Statistical analysis was performed using a 1-way ANOVA with Tukey post-test. A p-value below 0.05 was considered statistically significant.
as §3, §4

MRC-5 cells = assay: TGFβ-stimulated αSMA expression in MRC-5 cells (HTRF); type: cell-based; parameters: key to Significant reduction in αSMA via HTRF compared to TGFβ alone: NS = no statistically significant change in aSMA expression; + = p < 0.05; ++ = p < 0.01; +++ = p < 0.005; ++++ = p < 0.001; conditions: for Significant reduction in αSMA via HTRF compared to TGFβ alone: TGFβ 1 ng/ml, HGF 0.01 ng/ml, 48 h
Method: In this study, pulmonary-derived immortalized fibroblasts, MRC-5 cells, were cultured as a model of the early transition to fibrosis, and αSMA expression was measured using an immunodetection system driven by homogenous time-resolved fluorescence (HTRF) technology. This detection system produces a fluorescent signal in the presence of αSMA in cell lysates. Cells were grown to confluence in 96-well culture plates in complete media, and then transitioned to serum-free media for 2 hours. Next TGFβ (final 1 ng/ml in serum-free media) was added to the cells to stimulate the fibrotic transition. After 2 hours, media containing either HGF or HGF combined with one of the compounds was added to the cells. After incubation for 48 hours, cells were lysed and processed for αSMA HTRF to detect the levels of αSMA expression and compared to TGFβ-stimulated cultures. Statistical analysis consisted of 1-way ANOVA with a Dunnett's multiple comparison's post-test.

CFA-stimulated rats [3] = assay: CFA inflammatory pain model, thermal hyperalgesia (Hargreaves method); type: in vivo; parameters: key to Thermal Hyperalgesia, change in sensitivity compared to CFA alone: NS = no statistically significant change in sensitivity compared to CFA alone; + = statistically significant change in sensitivity compared to CFA alone, p < 0.05; conditions: 0.025 mg/kg PO daily; Day 3, 1 h post-dose
[4] = 0.025 mg/kg PO daily, Day 1, 1 h post-dose
[5] = 0.025 mg/kg PO daily, Day 7 post-dose
[6] = 0.025 mg/kg PO daily, Day 7 pre-dose
[7] = 0.1 mg/kg PO daily, Day 1, 1 h post-dose
[8] = 0.1 mg/kg PO daily, Day 3, 1 h post-dose
[9] = 0.1 mg/kg PO daily, Day 7 post-dose
[10] = 0.1 mg/kg PO daily, Day 7 pre-dose
[11] = 1 mg/kg PO daily, Day 1, 1 h post-dose
[12] = 1 mg/kg PO daily, Day 3, 1 h post-dose
[13] = 1 mg/kg PO daily, Day 7 post-dose
[14] = 1 mg/kg PO daily, Day 7 pre-dose

Structure (SMILES): CCC(C)CN1CC2N(C(=O)c3ccc(OC(F)F)cc3)CCC(=O)N2[C@@H](C)C1=O (some centres unmarked) [Compound 2a]
- Mechanical Allodynia, change in sensitivity compared to CFA alone (CFA-stimulated rats [1]; [4]): NS
- Mechanical Allodynia, change in sensitivity compared to CFA alone (CFA-stimulated rats [1]; 0.025 mg/kg PO daily, Day 3, 1 h post-dose): NS
- Mechanical Allodynia, change in sensitivity compared to CFA alone (CFA-stimulated rats [1]; [5]): NS
- Mechanical Allodynia, change in sensitivity compared to CFA alone (CFA-stimulated rats [1]; [6]): NS
- Mechanical Allodynia, change in sensitivity compared to CFA alone (CFA-stimulated rats [1]; [7]): NS
- Mechanical Allodynia, change in sensitivity compared to CFA alone (CFA-stimulated rats [1]; [8]): NS
- Mechanical Allodynia, change in sensitivity compared to CFA alone (CFA-stimulated rats [1]; [9]): NS
- Mechanical Allodynia, change in sensitivity compared to CFA alone (CFA-stimulated rats [1]; [10]): NS
- Mechanical Allodynia, change in sensitivity compared to CFA alone (CFA-stimulated rats [1]; [11]): NS
- Mechanical Allodynia, change in sensitivity compared to CFA alone (CFA-stimulated rats [1]; [12]): NS
- Mechanical Allodynia, change in sensitivity compared to CFA alone (CFA-stimulated rats [1]; [13]): + (+ = statistically significant change in sensitivity compared to CFA alone, p < 0.05)
- Mechanical Allodynia, change in sensitivity compared to CFA alone (CFA-stimulated rats [1]; [14]): NS
- mechanical allodynia (paw withdrawal threshold) (CFA-stimulated rats [1]; 1 mg/kg, study day 7, post-dose testing): reduced mechanical allodynia
- Thermal Hyperalgesia, change in sensitivity compared to CFA alone (CFA-stimulated rats [2]; [4]): NS
- Thermal Hyperalgesia, change in sensitivity compared to CFA alone (CFA-stimulated rats [2]; [5]): NS
- Thermal Hyperalgesia, change in sensitivity compared to CFA alone (CFA-stimulated rats [2]; [6]): NS
- Thermal Hyperalgesia, change in sensitivity compared to CFA alone (CFA-stimulated rats [2]; [7]): NS
- Thermal Hyperalgesia, change in sensitivity compared to CFA alone (CFA-stimulated rats [2]; [8]): NS
- Thermal Hyperalgesia, change in sensitivity compared to CFA alone (CFA-stimulated rats [2]; [9]): NS
- Thermal Hyperalgesia, change in sensitivity compared to CFA alone (CFA-stimulated rats [2]; [10]): NS
- Thermal Hyperalgesia, change in sensitivity compared to CFA alone (CFA-stimulated rats [2]; [11]): NS
- Thermal Hyperalgesia, change in sensitivity compared to CFA alone (CFA-stimulated rats [2]; [12]): + (+ = statistically significant change in sensitivity compared to CFA alone, p < 0.05)
- Thermal Hyperalgesia, change in sensitivity compared to CFA alone (CFA-stimulated rats [2]; [13]): NS
- Thermal Hyperalgesia, change in sensitivity compared to CFA alone (CFA-stimulated rats [2]; [14]): + (+ = statistically significant change in sensitivity compared to CFA alone, p < 0.05)
- thermal sensitivity (paw withdrawal latency) (CFA-stimulated rats [2]; 1 mg/kg, day 3 and pre-dose testing on day 7): reduced thermal sensitivity
- αSMA expression (MRC-5 cells; 1 uM, combined with 0.01 ng/ml HGF): significantly reduced αSMA
- Significant reduction in αSMA via HTRF compared to TGFβ alone (MRC-5 cells; test compound 1 nM): NS
- Significant reduction in αSMA via HTRF compared to TGFβ alone (MRC-5 cells; test compound 1 μM): ++++ (++++ = p < 0.001)
- Thermal Hyperalgesia, change in sensitivity compared to CFA alone (CFA-stimulated rats [3]): NS
